In ChEMBL document CHEMBL1833833, “Design and synthesis of long acting inhaled corticosteroids for the treatment of asthma” (Bioorg Med Chem Lett, 2011):
Values after ≈ are worked out from the molar mass of the structure shown. Active and inactive are the calls of the source. The calls are words filed in the database; no cut-off is given here.

Legend:
[1] = tested on: Rattus norvegicus; assay: Unbound clearance in rat at 0.5 mg/kg, iv; type: ADME, organism-based; design: dose 0.5 mg/kg, route intravenous; conditions: in vivo
[2] = tested on: Rattus norvegicus; assay: Clearance in rat at 0.5 mg/kg, iv; type: ADME, organism-based; design: dose 0.5 mg/kg, route intravenous; conditions: in vivo
[3] = Half life in rat; type: ADME, organism-based; conditions: in vivo
[4] = tested on: Blood; assay: Inhibition of TNFalpha release in LPS-stimulated human whole blood by ELISA assay; type: functional, tissue-based
[5] = tested on: PBMC; assay: Inhibition of TNFalpha release in human PBMC by ELISA assay; type: functional, cell-based
[6] = Oral bioavailability in rat at 2 mg/kg; type: ADME, organism-based; conditions: in vivo
[7] = tested on: Liver microsomes; assay: Metabolic stability of compound in human liver microsomes assessed as unbound intrinsic clearance by equilibrium dialysis; type: ADME, Microsome
[8] = Metabolic stability in human liver microsomes assessed as phase 2 glucuronidation in presence of UDPGA; type: ADME, Microsome; conditions: read-out: Stability
[9] = Metabolic stability of compound in human liver microsomes assessed as intrinsic clearance by equilibrium dialysis; type: ADME, Microsome
[10] = tested on: Rattus norvegicus; assay: Antiinflammatory activity in rat assessed as inhibition of LPS-induced lung neutrophilia 10 ug, intratracheally administered 1 hr prior to LPS challenge measured after 2 hrs; type: functional
[11] = target: T1, Glucocorticoid receptor (Homo sapiens) (UniProt P04150)
T1 sequence (whole entry): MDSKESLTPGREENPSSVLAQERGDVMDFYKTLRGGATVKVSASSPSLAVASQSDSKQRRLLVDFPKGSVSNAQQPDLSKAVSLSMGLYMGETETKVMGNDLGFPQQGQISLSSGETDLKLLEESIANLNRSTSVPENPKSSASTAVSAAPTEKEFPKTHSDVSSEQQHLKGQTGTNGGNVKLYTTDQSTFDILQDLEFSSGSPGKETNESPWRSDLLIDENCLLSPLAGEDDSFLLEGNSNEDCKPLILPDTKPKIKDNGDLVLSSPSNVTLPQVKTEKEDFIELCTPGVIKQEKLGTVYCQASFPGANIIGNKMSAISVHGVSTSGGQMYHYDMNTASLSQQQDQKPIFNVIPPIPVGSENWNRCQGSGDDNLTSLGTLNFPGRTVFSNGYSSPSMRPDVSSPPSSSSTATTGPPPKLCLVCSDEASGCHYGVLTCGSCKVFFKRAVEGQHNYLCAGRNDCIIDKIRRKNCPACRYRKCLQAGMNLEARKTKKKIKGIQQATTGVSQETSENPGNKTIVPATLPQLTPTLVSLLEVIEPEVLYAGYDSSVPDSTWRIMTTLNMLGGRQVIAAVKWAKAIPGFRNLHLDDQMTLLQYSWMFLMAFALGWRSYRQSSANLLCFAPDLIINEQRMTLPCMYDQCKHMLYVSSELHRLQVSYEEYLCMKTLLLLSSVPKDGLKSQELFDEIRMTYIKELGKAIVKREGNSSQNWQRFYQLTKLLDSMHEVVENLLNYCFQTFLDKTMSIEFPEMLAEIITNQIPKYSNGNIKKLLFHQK
Description: Agonist activity at human GR assessed as dissociation half life

[12] = tested on: Rattus norvegicus; assay: Antiinflammatory activity in rat assessed as inhibition of LPS-induced lung neutrophilia 10 ug, intratracheally administered 1 hr prior to LPS challenge measured after 1 hr; type: functional
[13] = Antiinflammatory activity in rat assessed as inhibition of LPS-induced lung neutrophilia 10 ug, intratracheally administered 1 hr prior to LPS challenge measured after 8 hrs; type: functional, Neutrophil
[14] = Antiinflammatory activity in rat assessed as effective dose for inhibition of LPS-induced lung neutrophilia administered intratracheally 4 hr prior to LPS challenge; type: functional, Neutrophil
[15] = Antiinflammatory activity in rat assessed as inhibition of LPS-induced lung neutrophilia 10 ug, intratracheally administered 1 hr prior to LPS challenge measured after 4 hrs; type: functional, Neutrophil
[16] = Solubility of compound in simulated lung fluid by dialysis bag method; type: physicochemical
[17] = target: T2, Estrogen receptor (Homo sapiens) (UniProt P03372); assay: Agonist activity at human ER; type: functional
T2 sequence (whole entry): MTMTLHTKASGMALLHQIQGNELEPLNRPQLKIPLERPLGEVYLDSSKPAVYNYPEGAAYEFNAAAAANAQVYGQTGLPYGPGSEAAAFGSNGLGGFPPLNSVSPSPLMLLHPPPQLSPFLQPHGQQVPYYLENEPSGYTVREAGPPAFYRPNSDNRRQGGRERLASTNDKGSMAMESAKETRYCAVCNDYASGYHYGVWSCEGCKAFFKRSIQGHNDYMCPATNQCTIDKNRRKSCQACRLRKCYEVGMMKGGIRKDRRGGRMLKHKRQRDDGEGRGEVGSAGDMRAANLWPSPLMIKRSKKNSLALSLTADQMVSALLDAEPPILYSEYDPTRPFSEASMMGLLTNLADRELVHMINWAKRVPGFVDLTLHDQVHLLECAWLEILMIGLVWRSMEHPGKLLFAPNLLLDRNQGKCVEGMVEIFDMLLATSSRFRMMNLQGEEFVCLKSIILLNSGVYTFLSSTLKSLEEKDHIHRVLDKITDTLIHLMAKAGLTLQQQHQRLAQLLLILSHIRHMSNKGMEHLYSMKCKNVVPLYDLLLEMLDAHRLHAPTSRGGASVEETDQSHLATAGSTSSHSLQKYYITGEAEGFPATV

[18] = Antiinflammatory activity in rat assessed as inhibition of LPS-induced lung neutrophilia at 10 ug, intratracheally administered 4 hr prior to LPS challenge measured after 8 hrs; type: functional, Neutrophil
[19] = Antiinflammatory activity in rat assessed as inhibition of LPS-induced lung neutrophilia at 10 ug, intratracheally administered 4 hr prior to LPS challenge measured after 24 hrs; type: functional, Neutrophil
[20] = target: T2, Estrogen receptor (Homo sapiens); assay: Antagonist activity at human ER; type: functional
[21] = target: T3, Androgen receptor (Homo sapiens) (UniProt P10275); assay: Antagonist activity at human AR; type: functional
T3 sequence (whole entry): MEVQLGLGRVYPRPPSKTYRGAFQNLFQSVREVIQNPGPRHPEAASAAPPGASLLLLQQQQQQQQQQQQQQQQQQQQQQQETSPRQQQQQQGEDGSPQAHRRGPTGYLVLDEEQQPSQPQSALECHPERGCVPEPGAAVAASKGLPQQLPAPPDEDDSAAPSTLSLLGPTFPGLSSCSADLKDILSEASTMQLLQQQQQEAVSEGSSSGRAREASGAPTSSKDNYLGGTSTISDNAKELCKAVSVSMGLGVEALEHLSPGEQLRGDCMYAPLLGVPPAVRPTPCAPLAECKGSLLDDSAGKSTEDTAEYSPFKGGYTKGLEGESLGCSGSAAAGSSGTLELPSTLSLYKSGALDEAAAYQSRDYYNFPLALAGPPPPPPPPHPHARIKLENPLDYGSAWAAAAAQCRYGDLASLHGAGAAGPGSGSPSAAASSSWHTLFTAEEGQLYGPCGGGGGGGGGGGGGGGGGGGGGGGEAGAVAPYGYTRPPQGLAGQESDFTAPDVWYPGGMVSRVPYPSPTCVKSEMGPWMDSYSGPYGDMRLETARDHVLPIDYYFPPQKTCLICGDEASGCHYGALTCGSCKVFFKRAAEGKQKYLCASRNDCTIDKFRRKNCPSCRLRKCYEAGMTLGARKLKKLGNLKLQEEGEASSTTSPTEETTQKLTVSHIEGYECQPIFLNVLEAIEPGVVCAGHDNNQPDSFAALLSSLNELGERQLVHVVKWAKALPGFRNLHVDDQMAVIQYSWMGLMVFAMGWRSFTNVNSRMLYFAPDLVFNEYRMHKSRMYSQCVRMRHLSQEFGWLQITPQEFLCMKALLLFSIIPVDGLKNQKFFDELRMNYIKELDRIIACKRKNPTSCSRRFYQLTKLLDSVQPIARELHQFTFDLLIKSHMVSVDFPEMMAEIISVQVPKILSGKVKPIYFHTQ

[22] = target: T3, Androgen receptor (Homo sapiens); assay: Agonist activity at human AR; type: functional
[23] = Antiinflammatory activity in rat assessed as inhibition of LPS-induced lung neutrophilia at 10 ug, intratracheally administered 4 hr prior to LPS challenge measured after 4 hrs; type: functional, Neutrophil
[24] = Antiinflammatory activity in rat assessed as inhibition of LPS-induced lung neutrophilia at 10 ug, intratracheally administered 4 hr prior to LPS challenge measured after 1 hr; type: functional, Neutrophil
[25] = Antiinflammatory activity in intratracheally dosed rat assessed as effective dose for inhibition of LPS-induced lung neutrophilia; type: functional, Neutrophil

SMILES	CL free [1] [mL/min/kg]	clearance [2] [mL/min/kg]	half-life [3] [h]	IC50 [4] [pM]	IC50 [5] [pM]	bioavailability [6] [%]	microsomal CLint [8] [µL/min/mg]	microsomal CLint [9] [µL/min/mg]	further results
CSc1cccc(Sc2ccc([C@@H]3O[C@@H]4C[C@H]5[C@@H]6C[C@H](F)C7=CC(=O)C=C[C@]7(C)[C@@]6(F)[C@@H](O)C[C@]5(C)[C@]4(C(=O)CO)O3)cc2)c1	> 18000	26	1.9	47400	100	< 0.5	< 3.5	154	CL free [7]: > 3080 µL/min/mg
CCC(=O)O[C@]1(C(=O)SCF)[C@H](C)C[C@H]2[C@@H]3C[C@H](F)C4=CC(=O)C=C[C@]4(C)[C@@]3(F)[C@@H](O)C[C@@]21C [FLUTICASONE PROPIONATE]	1800	56	1.1	9300	100	< 2	< 3.5	51	inhibition (INH) [10]: 11%; T1/2 [11]: 9.07 h; inhibition (INH) [12]: 29%; inhibition (INH) [13]: 10%; ED50 [14]: 3 µg; inhibition (INH) [15]: 8%; CL free [7]: 300 µL/min/mg; solubility [16]: 0.32 µg/mL (≈ 0.639 µM)
CCCC1O[C@@H]2C[C@H]3[C@@H]4CCC5=CC(=O)C=C[C@]5(C)[C@H]4[C@@H](O)C[C@]3(C)[C@]2(C(=O)CO)O1 (some centres undefined) [BUDESONIDE]	–	–	–	8460	960	–	–	–	–
C[C@]12C=CC(=O)C=C1[C@@H](F)C[C@H]1[C@@H]3C[C@H]4O[C@@H](c5ccc(SCc6ccccc6)cc5)O[C@@]4(C(=O)CO)[C@@]3(C)C[C@H](O)[C@@]12F	–	–	–	–	160	–	–	–	–
C[C@]12C=CC(=O)C=C1[C@@H](F)C[C@H]1[C@@H]3C[C@H]4O[C@@H](c5ccc(-c6ccccc6)cc5)O[C@@]4(C(=O)CO)[C@@]3(C)C[C@H](O)[C@@]12F	–	–	–	–	410	–	–	–	–
C[C@]12C=CC(=O)C=C1[C@@H](F)C[C@H]1[C@@H]3C[C@H]4O[C@@H](c5ccc(CSc6ccc(O)c(Cl)c6)cc5)O[C@@]4(C(=O)CO)[C@@]3(C)C[C@H](O)[C@@]12F	> 59000	84	2.8	8730	30	< 1	100	122	Activity [17]: inactive; inhibition (INH) [18]: 46%; inhibition (INH) [19]: 24%; Activity [20]: inactive; Activity [21]: inactive; Activity [22]: inactive; inhibition (INH) [23]: 59%; inhibition (INH) [24]: 52%; solubility [16]: 0.36 µg/mL (≈ 0.535 µM); ED50 [25]: 36 µg
C[C@]12C=CC(=O)C=C1[C@@H](F)C[C@H]1[C@@H]3C[C@H]4O[C@@H](c5ccc(CSc6ccccc6)cc5)O[C@@]4(C(=O)CO)[C@@]3(C)C[C@H](O)[C@@]12F	–	–	–	–	220	–	–	–	–
C[C@]12C=CC(=O)C=C1[C@@H](F)C[C@H]1[C@@H]3C[C@H]4O[C@@H](c5ccc(CSc6ccc(O)cc6)cc5)O[C@@]4(C(=O)CO)[C@@]3(C)C[C@H](O)[C@@]12F	–	–	–	–	60	–	–	–	–
